Results: patent US6759238B1, “Multidrug resistance associated proteins and uses thereof” (priority 1999, dated 2004)
Where two headings read alike, the source gives them in different places. Values belong to the molecule of their own block, whether it stands above or below them.

What was measured:
CEM-SS cells [1] = experiment: Cytotoxicity assay (growth inhibition, Coulter counter)
Experimental: […] Each result is the mean of one representative experiment performed in duplicate. The cultures with the purine nucleosides adenosine, 2′-deoxyadenosine, and arabinosyladenine contained 5 μM deoxycoformycin to inhibit adenosine deaminase activity.
(§1) All assays were performed in 24-well tissue culture plates (Costar, Cambridge, Ma.). […] At the end of the incubation, the cell concentrations, sizes, and volumes were counted in a Coulter counter (Coulter Electronics, Hialeah. Fla.).

CEM-r1 cells [2] = experiment: as above; details: for Relative Resistance: CEM-r1 vs CEM-SS (Table 3); for Cross-resistance of CEM-r1 cells (in words): relative sensitivity of wild-type and CEM-r1 cells
Experimental: Selection for PMEA resistance was carried out by exposing CEM-SS cells in culture to increasing concentrations of PMEA, over several months.
The IC50 values were obtained after 2 days of culture. Each result is the mean of one representative experiment performed in duplicate. The cultures with the purine nucleosides adenosine, 2′-deoxyadenosine, and arabinosyladenine contained 5 μM deoxycoformycin to inhibit adenosine deaminase activity.
as §1

CEM-SS cells [3] = experiment: Uptake and metabolism of [3H]PMEA; details: 10 μM [3H]PMEA
Experimental: (§3) The mutant and parental cells were incubated with 10 μM [^3H]PMEA and at various times were analyzed for intracellular levels of PMEA and its metabolites by Partisil SAX HPLC. […] The metabolism of [^3H]PMEA was also examined in both cell lines after longer periods (i.e., 8 and 12 hr) of incubation with 10 μM [^3H]PMEA.
(§4) Exponentially growing cultures were incubated with 10 μM [^3H] PMEA for 8 or 12 hr and the cell extracts were analyzed for PMEA and its metabolites by ion exchange HPLC, as described.
(§5) Exponentially growing CEM-SS and CEM-r1 cells were harvested by centrifugation, resuspended at 1×10^6 cells/ml in fresh medium in the presence of [^3H]PMEA or [^3H]bispom-PMEA, and incubated at 37° C. At the indicated time points, aliquots of the cells were removed and centrifuged through Nyosil 50 (W. F. Nye, Inc., New Bedford, Ma.) at 13,000×g for 60 seconds at 4° C. When bispom-PMEA was investigated, an aliquot of the cell-free medium was also removed and analyzed by HPLC for determination of extracellular metabolites. The cell pellet was extracted with 70% ice-cold methanol and the aqueous phase was collected and analyzed for intracellular tritiated PMEA or tritiated bispom-PMEA and their metabolites by using HPLC analysis, essentially as described previously (23, 24).

CEM-r1 cells [4] = experiment: Uptake and metabolism of [3H]PMEA; details: for Intracellular levels: CEM-r1, 10 μM [3H]PMEA; for Intracellular level in CEM-r1 as percent of the wildtype level: CEM-r1 vs CEM-SS
Experimental: as §3, §4, §5

CEM-SS cells [5] = experiment: Uptake and metabolism of [3H]bispom-PMEA; details: CEM-SS, 1 μM [3H]bispom-PMEA, 15 minutes
Experimental: (§2) Therefore, the metabolism of [^3H]bispom-PMEA (15), a lipophilic prodrug of PMEA, was analyzed in the two cell lines in order to further examine the mechanism of resistance in the mutant cell line.

CEM-r1 cells [6] = experiment: Uptake and metabolism of [3H]bispom-PMEA; details: CEM-r1, 1 μM [3H]bispom-PMEA, 15 minutes
Experimental: as §2

[7] = CEM-SS, 2 days of culture (Table 3)
[8] = CEM-r1, 2 days of culture (Table 3)

Structure (SMILES): Nc1ncnc2c1ncn2[C@@H]1O[C@H](CO)[C@@H](O)[C@@H]1O [Arabinosyladenine]
- IC50 (CEM-SS cells [1]; Homo sapiens, CEM-SS, 48 h): 0.7 µM
- Relative Resistance (CEM-r1 cells [2]): ˜1
- IC50 (CEM-r1 cells [2]; Homo sapiens, 48 h): 0.9 µM

Structure (SMILES): Nc1nc2c(ncn2CCOCP(=O)(O)O)c(=O)[nH]1 [PMEG, 9-(2-phosphonylmethoxyethyl)guanine]
- IC50 (CEM-SS cells [1]; [7]): 0.7 µM
- IC50 (CEM-SS cells [1]; read-out: Cytotoxicity IC50, WT (CEM-SS) cells (Table 5)): 5 µM
- IC50 (CEM-r1 cells [2]; [8]): 19 µM
- IC50 (CEM-r1 cells [2]; read-out: Cytotoxicity IC50, CEM-r1 cells (Table 5)): 200 µM
- Cross-resistance of CEM-r1 cells (in words) (CEM-r1 cells [2]): partial cross-resistance

Structure (SMILES): COc1cc2c(c(OC)c1OC)-c1ccc(OC)c(=O)cc1[C@@H](NC(C)=O)CC2 [Colchicine]
- Cross-resistance of CEM-r1 cells (in words) (CEM-r1 cells [2]): not resistant

Structure (SMILES): Nc1nc(N)c2ncn(CCOCP(=O)(O)O)c2n1 [PMEADAP]
- IC50 (CEM-SS cells [1]; Homo sapiens, CEM-SS, 48 h): 2.3 µM
- Relative Resistance (CEM-r1 cells [2]): 533
- IC50 (CEM-r1 cells [2]; Homo sapiens, 48 h): 1200 µM
- Cross-resistance of CEM-r1 cells (in words) (CEM-r1 cells [2]): highly cross-resistant

Structure (SMILES): Nc1nc(Cl)nc2c1ncn2[C@H]1C[C@H](O)[C@@H](CO)O1 [2-Chlorodeoxyadenosine]
- IC50 (CEM-SS cells [1]; Homo sapiens, CEM-SS, 48 h): 0.08 µM
- Relative Resistance (CEM-r1 cells [2]): 5.5
- IC50 (CEM-r1 cells [2]; Homo sapiens, 48 h): 0.4 µM
- Cross-resistance of CEM-r1 cells (in words) (CEM-r1 cells [2]): partially resistant

Structure (SMILES): CC[C@]1(O)C[C@@H]2CN(CCc3c([nH]c4ccccc34)[C@@](C(=O)OC)(c3cc4c(cc3OC)N(C)[C@H]3[C@@](O)(C(=O)OC)[C@H](OC(C)=O)[C@]5(CC)C=CCN6CC[C@]43[C@@H]65)C2)C1 [Vinblastine]
- IC50 (CEM-SS cells [1]; Homo sapiens, CEM-SS, 48 h): 0.0018 µM
- Relative Resistance (CEM-r1 cells [2]): ˜1
- IC50 (CEM-r1 cells [2]; Homo sapiens, 48 h): 0.0021 µM
- Cross-resistance of CEM-r1 cells (in words) (CEM-r1 cells [2]): not resistant

- Intracellular levels (CEM-SS cells [3]; 8 hr): 0.22 µM
- Intracellular levels (CEM-SS cells [3]; 12 hr): 0.41 µM
- Intracellular levels (CEM-r1 cells [4]; 8 hr): 0.008 µM
- Intracellular levels (CEM-r1 cells [4]; 12 hr): 0.01 µM
- Intracellular level in CEM-r1 as percent of the wildtype level (CEM-r1 cells [4]; 8 hr): (3.6%)
Structure (SMILES): Nc1ncnc2c1ncn2CCOCP(=O)(O)OP(=O)(O)OP(=O)(O)O [PMEApp]

- Intracellular levels (CEM-SS cells [3]; 8 hr): 0.13 µM
- Intracellular levels (CEM-SS cells [3]; 12 hr): 0.23 µM
- Intracellular levels (CEM-r1 cells [4]; 8 hr): 0.005 µM
- Intracellular levels (CEM-r1 cells [4]; 12 hr): 0.005 µM
- Intracellular level in CEM-r1 as percent of the wildtype level (CEM-r1 cells [4]; 8 hr): (3.8%)
Structure (SMILES): Nc1ncnc2c1ncn2CCOCP(=O)(O)OP(=O)(O)O [PMEAp]

Structure (SMILES): Nc1ncnc2c1ncn2C[C@@H](CO)OCP(=O)(O)O [HPMPA]
- IC50 (CEM-SS cells [1]; [7]): 92 µM
- IC50 (CEM-r1 cells [2]; [8]): 1100 µM
- Relative Resistance (CEM-r1 cells [2]): 12
- Cross-resistance of CEM-r1 cells (in words) (CEM-r1 cells [2]): partial cross-resistance

Structure (SMILES): NC(=O)NO [Hydroxyurea]
- IC50 (CEM-SS cells [1]; Homo sapiens, CEM-SS, 48 h): 55 µM
- Relative Resistance (CEM-r1 cells [2]): ˜1
- IC50 (CEM-r1 cells [2]; Homo sapiens, 48 h): 50 µM

Structure (SMILES): CC(C)(C)C(=O)OCOP(=O)([O-])COCCn1cnc2c(N)ncnc21.[Na+] [Monopom-PMEA]
- Metabolite Levels, Cells (CEM-SS cells [5]): 4.6 µM
- Metabolite Levels, Medium (CEM-SS cells [5]): 185 nM
- Metabolite Levels, Cells (CEM-r1 cells [6]): 4.1 µM
- Metabolite Levels, Medium (CEM-r1 cells [6]): 166 nM

Structure (SMILES): Nc1nc(F)nc2c1ncn2[C@@H]1O[C@H](CO)[C@@H](O)[C@@H]1O [2-Fluoroarabinosyladenine]
- IC50 (CEM-SS cells [1]; [7]): 1.2 µM
- IC50 (CEM-r1 cells [2]; [8]): 4.4 µM
- Relative Resistance (CEM-r1 cells [2]): 3.7
- Cross-resistance of CEM-r1 cells (in words) (CEM-r1 cells [2]): partially resistant

Structure (SMILES): Nc1ncnc2c1ncn2[C@@H]1O[C@H](CO)[C@@H](O)[C@H]1O [Adenosine]
- IC50 (CEM-SS cells [1]; Homo sapiens, CEM-SS, 48 h): 38 µM
- Relative Resistance (CEM-r1 cells [2]): 5.4
- IC50 (CEM-r1 cells [2]; Homo sapiens, 48 h): 205 µM
- Cross-resistance of CEM-r1 cells (in words) (CEM-r1 cells [2]): partially resistant

Structure (SMILES): Nc1ncnc2c1ncn2[C@H]1C[C@H](O)[C@@H](CO)O1 [2′-Deoxyadenosine]
- IC50 (CEM-SS cells [1]; Homo sapiens, CEM-SS, 48 h): 1.7 µM
- Relative Resistance (CEM-r1 cells [2]): ˜1
- IC50 (CEM-r1 cells [2]; Homo sapiens, 48 h): 2.5 µM
